# Counter-ions that a name gives are not always drawn.
# Assays:
# Kir1.1 (ROMK1) = Kir1.1 (ROMK1) (Homo sapiens (Human), UniProt P48048); experiment: Electrophysiology Assay (whole cell voltage clamp, IonWorks Quattro); assay type: cell-based; conditions: Chinese hamster ovary cells stably expressing Kir1.1; block during voltage step to 0 mV; read-out: Electrophysiology IC50
# Outline: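 CHO cells stably expressing the channel, induced overnight with 1 mM sodium butyrate, were recorded in amphotericin-perforated patch mode. The test pulse was a 100 ms step to 0 mV from −70 mV, then a −70 to +70 mV ramp, applied before and after a 6 min compound incubation. Current amplitudes were compared.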
# hROMK (hKir1.1) = hROMK (hKir1.1) (Homo sapiens (Human), UniProt P48048); experiment: Thallium Flux Assay (ROMK channel functional thallium flux, FLIPR-Tetra); assay type: cell-based; conditions: HEK293 cells stably expressing hROMK (hKir1.1); read-out: Thallium Flux IC50
# hROMK (hKir1.1), sequence (P48048 whole entry): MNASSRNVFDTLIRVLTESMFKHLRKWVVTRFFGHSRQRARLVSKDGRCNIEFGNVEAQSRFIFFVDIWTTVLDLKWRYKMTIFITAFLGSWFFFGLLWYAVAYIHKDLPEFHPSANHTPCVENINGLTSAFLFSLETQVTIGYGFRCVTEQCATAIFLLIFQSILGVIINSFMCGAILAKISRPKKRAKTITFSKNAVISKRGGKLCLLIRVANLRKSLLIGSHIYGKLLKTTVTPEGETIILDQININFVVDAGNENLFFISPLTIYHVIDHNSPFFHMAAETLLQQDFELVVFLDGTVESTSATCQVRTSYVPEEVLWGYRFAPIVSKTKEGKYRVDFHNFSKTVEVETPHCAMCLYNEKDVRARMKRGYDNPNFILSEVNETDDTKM
# Kir1.1 (ROMK1), sequence (P48048 whole entry, species assumed): as the sequence (P48048 whole entry) above
SMILES,IC50 (Kir1.1 (ROMK1)),IC50 (hROMK (hKir1.1))
COc1c(CCN2CCN3C[C@H](c4ccc5c(c4C)COC5=O)OC[C@H]3C2)ccc(C#N)c1F [Example 94],140 nM,240 nM
COc1c(CCN2CCN3C[C@@H](c4ccc5c(c4C)COC5=O)OC[C@@H]3C2)ccc(C#N)c1F [Example 95],110 nM,120 nM
COc1c(CCN2CCN3C[C@H](c4ccc5c(c4C)COC5=O)OC[C@@H]3C2)ccc(C#N)c1F [Example 96],80 nM,210 nM
COc1cc(CCN2CCN3C[C@H](c4ccc5c(c4C)COC5=O)OC[C@H]3C2)c(F)cc1C#N [Example 97],280 nM,350 nM
Cc1c([C@@H]2CN3CCN(CCc4cc(F)c(C#N)c(F)c4)C[C@H]3CO2)ccc2c1COC2=O [Example 98],90 nM,170 nM
COc1cc(CCN2CCN3C[C@@H](c4ccc5c(c4C)COC5=O)OC[C@@H]3C2)cc(F)c1C#N [Example 99],210 nM,260 nM
"Cc1c([C@@H]2CN3CCN(C4CCc5cc(C#N)ccc5C4)C[C@H]3CO2)ccc2c1COC2=O (stereo partly drawn) [Example 100, (3R,9aS)-8-(6-cyano-1,2,3,4-tetrahydronaphthalen-2-yl)-3-(4-methyl-1-oxo-1,3-dihydro-2-benzofuran-5-yl)octahydropyrazino[2,1-c][1,4]oxazin-5-ium trifluoroacetate]",210 nM,30 nM
"COc1cc(CCN2CCN3C[C@@H](c4ccc5c(c4C)COC5=O)NC[C@@H]3C2)ccc1C#N [Example 101, 2-Methoxy-4-(2-((7R,9aR)-7-(4-methyl-1-oxo-1,3-dihydroisobenzofuran-5-yl)hexahydro-1H-pyrazino[1,2-a]pyrazin-2(6H)-yl)ethyl)benzonitrile]",100 nM,210 nM
Cc1c([C@@H]2CN3CCN(CCc4ccc5c(c4)COC5=O)C[C@H]3CN2)ccc(F)c1C#N [Example 103],60 nM,140 nM
Cc1c([C@H]2CN3CCN(CCc4ccc5c(c4)COC5=O)C[C@H]3CN2)ccc(F)c1C#N [Example 104],400 nM,110 nM
Cc1c([C@@H]2CN3CCN(CCc4ccc5c(c4)COC5=O)C[C@@H]3CN2)ccc(F)c1C#N [Example 105],150 nM,290 nM
Cc1c([C@H]2CN3CCN(CCc4ccc5c(c4)COC5=O)C[C@@H]3CN2)ccc(F)c1C#N [Example 106],50 nM,130 nM
Cc1c([C@@H]2CN3CCN(C[C@H](O)c4ccc5c(c4)COC5=O)C[C@@H]3CN2)ccc(F)c1C#N [Example 107],200 nM,160 nM
Cc1c([C@H]2CN3CCN(C[C@H](O)c4ccc5c(c4)COC5=O)C[C@@H]3CN2)ccc(F)c1C#N [Example 108],100 nM,100 nM

# From patent US9604998B2, “Inhibitors of the renal outer medullary potassium channel” (MERCK SHARP & DOHME CORP., priority 2013, dated 2017)
